Measured values published in PMC4503722, “Novel Phenotypic Outcomes Identified for a Public Collection of Approved Drugs from a Publicly Accessible Panel of Assays” (PLoS ONE, 2015).
Where two headings read alike, the source gives them in different places.

Experiments:
[1] = system: endothelial tube formation in co-cultures of ECFCs and ADSCs treated with VEGF; assay: cells; type: cell-based, human
[2] = system: HeLa cells; assay: cells; type: cell-based;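 for Hela CellCycMod PI 4N summarized IC50: value tracks stimulation of 4N DNA content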
[3] = system: DLD-1; assay: cells; type: cell-based
[4] = system: HCT116; assay: cells; type: cell-based
[5] = system: HCT116 cells treated with a GSK3β inhibitor; assay: cells; type: cell-based
[6] = system: Colo320; assay: cells; type: cell-based
[7] = target: T1, hp70S6K1 (RPS6KB1) (Homo sapiens, UniProt P23443); assay: Cerep LANCE kinase assay hp70S6K1 (S1 assay 31); type: biochemical
T1 construct: purchased Cerep (LANCE kinase assay platform, contract assay)

[8] = target: T2, hKDR (Homo sapiens, UniProt P35968); assay: Cerep LANCE kinase assay hKDR (S1 assay 32); type: biochemical
T2 construct: purchased Cerep (LANCE kinase assay platform, contract assay)

[9] = target: T3, hGSK3b (Homo sapiens, UniProt P49841); assay: Cerep LANCE kinase assay hGSK3b (S1 assay 34); type: biochemical
T3 construct: purchased Cerep (LANCE kinase assay platform, contract assay)

[10] = target: T4, hFLT3 (Homo sapiens, UniProt P36888); assay: Cerep LANCE kinase assay hFLT3 (S1 assay 35); type: biochemical
T4 construct: purchased Cerep (LANCE kinase assay platform, contract assay)

[11] = system: ECFC/ADSC co-culture cell nuclei number; settings: for IC50: read-out: VEGF_ADSC\ECFC Angio Hoechst NucArea summarized IC50
[12] = target: T5, hJAK2 (Homo sapiens, UniProt O60674); assay: Cerep LANCE kinase assay hJAK2 (S1 assay 33); type: biochemical
T5 construct: purchased Cerep (LANCE kinase assay platform, contract assay)

[13] = system: SW480; assay: cells; type: cell-based; settings: assay number 24; basal; read-out: Basal_Viability ATP SW480 summarized IC50
[14] = system: HT-29; assay: cells; type: cell-based; settings: assay number 28; basal; read-out: Basal_Viability ATP HT-29 summarized IC50
[15] = system: RKO; assay: cells; type: cell-based; settings: assay number 29; basal; read-out: Basal_Viability ATP RKO summarized IC50
[16] = system: SNU-C1; assay: cells; type: cell-based; settings: assay number 30; basal; read-out: Basal_Viability ATP SNU-C1 summarized IC50
[17] = system: nuclear β-catenin in C2C12 cells; assay: cells; type: cell-based; settings: Mus musculus, C2C12, read-out: Wnt Pathway
[18] = system: INS-1E cells; assay: cells; type: cell-based, rat; settings: Rattus norvegicus, INS-1E, read-out: Insulin Secretion
[19] = system: NCI-H716 cells; assay: cells; type: cell-based, Human; settings: Homo sapiens, NCI-H716, read-out: GLP 1 Secretion
[20] = read-out: VEGF_ADSC\ECFC Angio CD31 TubeArea summarized IC50
[21] = assay number 14, 2N, read-out: Hela CellCycMod PI 2N summarized IC50
[22] = assay number 15, S phase, read-out: Hela CellCycMod PI S Phase summarized IC50
[23] = assay number 16, 4N, read-out: Hela CellCycMod PI 4N summarized IC50
[24] = assay number 17, MI, read-out: Hela CellCycMod PI MI summarized IC50
[25] = assay number 18, cell number, read-out: Hela CellCycMod PI Cell Number summarized IC50
[26] = assay number 23, basal, read-out: Basal_Viability ATP DLD-1 summarized IC50
[27] = assay number 25, basal, read-out: Basal_Viability ATP HCT116 summarized IC50
[28] = assay number 26, GSK3b inhibitor pretreated, read-out: GSK3b inh pretreated_Viability ATP HCT116 summarized IC50
[29] = assay number 27, basal, read-out: Basal_Viability ATP Colo 320 summarized IC50
[30] = assay number 31, read-out: hp70S6K1 LANCE summarized IC50
[31] = assay number 33, read-out: hJAK2 LANCE summarized IC50
[32] = assay number 34, read-out: hGSK3b LANCE summarized IC50
[33] = assay number 35, read-out: hFLT3 LANCE summarized IC50
[34] = kinase assay, read-out: p70S6K1

T5 sequence (O60674 whole entry): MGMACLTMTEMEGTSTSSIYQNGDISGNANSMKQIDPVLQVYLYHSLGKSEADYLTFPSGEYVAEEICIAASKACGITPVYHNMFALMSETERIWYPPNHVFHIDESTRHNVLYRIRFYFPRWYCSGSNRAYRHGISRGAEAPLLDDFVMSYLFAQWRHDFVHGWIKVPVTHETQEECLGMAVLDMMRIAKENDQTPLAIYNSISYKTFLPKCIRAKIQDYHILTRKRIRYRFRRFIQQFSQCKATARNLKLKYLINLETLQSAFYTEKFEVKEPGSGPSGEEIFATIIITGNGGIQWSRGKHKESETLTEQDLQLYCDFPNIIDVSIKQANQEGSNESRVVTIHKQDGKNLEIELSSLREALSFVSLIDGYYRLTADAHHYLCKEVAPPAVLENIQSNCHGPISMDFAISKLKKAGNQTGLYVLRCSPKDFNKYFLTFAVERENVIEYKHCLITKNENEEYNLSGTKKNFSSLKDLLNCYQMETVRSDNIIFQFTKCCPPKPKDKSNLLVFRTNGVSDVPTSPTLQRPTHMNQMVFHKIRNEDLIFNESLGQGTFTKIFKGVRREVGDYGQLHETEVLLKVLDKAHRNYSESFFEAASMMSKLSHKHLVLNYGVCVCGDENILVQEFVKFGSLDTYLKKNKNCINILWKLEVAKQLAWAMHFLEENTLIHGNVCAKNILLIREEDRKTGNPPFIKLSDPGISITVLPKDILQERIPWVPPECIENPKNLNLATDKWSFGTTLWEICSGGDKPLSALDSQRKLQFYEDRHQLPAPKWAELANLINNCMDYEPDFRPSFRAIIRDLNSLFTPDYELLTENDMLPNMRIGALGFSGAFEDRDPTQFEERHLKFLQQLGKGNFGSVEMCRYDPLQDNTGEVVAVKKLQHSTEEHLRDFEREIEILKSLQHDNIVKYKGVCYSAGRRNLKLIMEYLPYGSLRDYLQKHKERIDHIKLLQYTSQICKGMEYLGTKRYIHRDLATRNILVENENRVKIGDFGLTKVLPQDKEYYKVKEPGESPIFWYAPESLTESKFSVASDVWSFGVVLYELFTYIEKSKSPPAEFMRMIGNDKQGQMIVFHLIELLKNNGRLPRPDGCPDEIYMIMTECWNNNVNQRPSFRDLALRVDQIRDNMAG
T2 sequence (P35968 20-1356): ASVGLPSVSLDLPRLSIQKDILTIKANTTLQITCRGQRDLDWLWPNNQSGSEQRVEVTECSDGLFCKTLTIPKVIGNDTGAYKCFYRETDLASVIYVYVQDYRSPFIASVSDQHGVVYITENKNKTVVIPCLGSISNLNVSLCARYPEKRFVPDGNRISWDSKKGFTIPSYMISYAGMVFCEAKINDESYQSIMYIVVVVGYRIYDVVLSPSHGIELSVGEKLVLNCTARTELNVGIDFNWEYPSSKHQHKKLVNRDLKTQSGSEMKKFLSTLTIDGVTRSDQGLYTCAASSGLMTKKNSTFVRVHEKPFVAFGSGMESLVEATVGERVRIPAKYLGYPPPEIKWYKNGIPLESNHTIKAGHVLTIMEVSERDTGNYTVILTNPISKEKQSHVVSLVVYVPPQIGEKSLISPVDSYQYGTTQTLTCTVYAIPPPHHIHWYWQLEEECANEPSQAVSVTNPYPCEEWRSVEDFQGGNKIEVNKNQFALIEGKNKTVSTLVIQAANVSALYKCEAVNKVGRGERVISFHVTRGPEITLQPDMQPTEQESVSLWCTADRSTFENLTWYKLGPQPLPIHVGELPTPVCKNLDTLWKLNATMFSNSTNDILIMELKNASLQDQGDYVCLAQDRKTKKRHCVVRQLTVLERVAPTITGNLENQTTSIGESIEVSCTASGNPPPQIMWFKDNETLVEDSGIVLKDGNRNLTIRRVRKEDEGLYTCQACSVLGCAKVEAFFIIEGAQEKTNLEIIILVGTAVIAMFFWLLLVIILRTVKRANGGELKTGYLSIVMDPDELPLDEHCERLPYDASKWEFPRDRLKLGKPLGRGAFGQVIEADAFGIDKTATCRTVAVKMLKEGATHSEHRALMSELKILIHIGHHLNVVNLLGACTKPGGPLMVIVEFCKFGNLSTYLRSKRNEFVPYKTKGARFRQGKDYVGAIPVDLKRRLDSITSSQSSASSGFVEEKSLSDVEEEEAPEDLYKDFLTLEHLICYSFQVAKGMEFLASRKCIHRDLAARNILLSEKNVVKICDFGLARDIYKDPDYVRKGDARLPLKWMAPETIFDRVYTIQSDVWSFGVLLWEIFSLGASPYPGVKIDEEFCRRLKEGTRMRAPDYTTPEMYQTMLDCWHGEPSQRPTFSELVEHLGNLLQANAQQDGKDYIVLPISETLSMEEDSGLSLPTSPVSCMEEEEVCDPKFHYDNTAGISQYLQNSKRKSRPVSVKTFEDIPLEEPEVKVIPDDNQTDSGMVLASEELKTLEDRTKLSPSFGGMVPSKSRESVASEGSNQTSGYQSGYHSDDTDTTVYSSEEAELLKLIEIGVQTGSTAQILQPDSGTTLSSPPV
T4 sequence (P36888 27-993): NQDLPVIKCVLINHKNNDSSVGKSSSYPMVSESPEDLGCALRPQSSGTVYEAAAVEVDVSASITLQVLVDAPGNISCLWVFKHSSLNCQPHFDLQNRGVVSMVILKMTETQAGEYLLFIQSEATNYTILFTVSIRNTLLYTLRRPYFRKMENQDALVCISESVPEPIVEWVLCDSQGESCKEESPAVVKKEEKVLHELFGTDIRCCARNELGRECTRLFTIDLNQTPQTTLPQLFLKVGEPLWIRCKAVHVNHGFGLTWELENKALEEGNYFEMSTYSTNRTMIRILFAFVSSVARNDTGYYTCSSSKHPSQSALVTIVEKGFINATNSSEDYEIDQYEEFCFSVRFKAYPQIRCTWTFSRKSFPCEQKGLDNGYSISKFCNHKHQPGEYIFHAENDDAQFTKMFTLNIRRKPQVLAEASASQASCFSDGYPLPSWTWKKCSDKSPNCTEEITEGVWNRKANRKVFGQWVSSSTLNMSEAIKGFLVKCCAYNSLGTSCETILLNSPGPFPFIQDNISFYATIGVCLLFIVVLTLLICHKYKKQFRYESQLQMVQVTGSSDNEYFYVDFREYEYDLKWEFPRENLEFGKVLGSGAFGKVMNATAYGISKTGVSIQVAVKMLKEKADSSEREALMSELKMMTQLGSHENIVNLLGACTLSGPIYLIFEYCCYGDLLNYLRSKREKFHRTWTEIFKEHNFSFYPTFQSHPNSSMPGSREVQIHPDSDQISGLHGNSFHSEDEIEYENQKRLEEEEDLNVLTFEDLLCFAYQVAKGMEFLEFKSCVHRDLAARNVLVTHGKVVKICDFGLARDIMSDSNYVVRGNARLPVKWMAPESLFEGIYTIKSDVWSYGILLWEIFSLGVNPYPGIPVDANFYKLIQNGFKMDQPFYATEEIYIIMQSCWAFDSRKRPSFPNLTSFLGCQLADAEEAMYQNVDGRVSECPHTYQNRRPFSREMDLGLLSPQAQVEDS
T1 sequence (P23443 whole entry): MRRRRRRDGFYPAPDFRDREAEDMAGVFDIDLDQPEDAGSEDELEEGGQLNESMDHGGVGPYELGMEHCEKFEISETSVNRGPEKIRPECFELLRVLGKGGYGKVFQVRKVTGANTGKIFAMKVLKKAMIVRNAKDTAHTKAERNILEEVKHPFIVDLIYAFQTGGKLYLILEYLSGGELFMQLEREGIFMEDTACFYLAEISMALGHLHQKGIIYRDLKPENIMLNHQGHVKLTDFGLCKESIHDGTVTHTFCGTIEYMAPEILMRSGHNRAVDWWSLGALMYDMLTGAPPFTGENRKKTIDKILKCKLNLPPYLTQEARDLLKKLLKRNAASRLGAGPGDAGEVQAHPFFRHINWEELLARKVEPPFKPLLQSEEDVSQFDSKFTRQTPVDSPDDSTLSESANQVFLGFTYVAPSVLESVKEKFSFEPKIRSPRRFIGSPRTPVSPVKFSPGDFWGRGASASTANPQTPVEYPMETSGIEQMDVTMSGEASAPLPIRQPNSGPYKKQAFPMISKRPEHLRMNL
T3 sequence (P49841 whole entry): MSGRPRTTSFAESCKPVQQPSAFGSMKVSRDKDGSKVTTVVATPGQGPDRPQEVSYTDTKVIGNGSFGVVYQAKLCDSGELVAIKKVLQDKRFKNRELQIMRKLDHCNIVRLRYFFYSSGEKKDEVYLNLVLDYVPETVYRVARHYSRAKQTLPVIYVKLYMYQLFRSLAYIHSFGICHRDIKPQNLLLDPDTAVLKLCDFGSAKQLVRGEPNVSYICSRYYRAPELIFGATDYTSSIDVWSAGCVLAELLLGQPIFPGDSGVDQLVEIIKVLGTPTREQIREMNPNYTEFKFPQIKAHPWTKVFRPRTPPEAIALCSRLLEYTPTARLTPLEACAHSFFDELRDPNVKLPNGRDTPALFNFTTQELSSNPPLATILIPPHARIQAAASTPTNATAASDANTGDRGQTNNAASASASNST

Structure (SMILES)	IC50 [1, 20]	IC50 [11]	VEGF_ADSC\ECFC Angio CD31 TubeArea IC50/EC50 [1]	Hela CellCycMod PI 2N IC50/EC50 ([2]; assay number 14, 2N)	Hela CellCycMod PI 4N IC50/EC50 ([2]; assay number 16, 4N)	Hela CellCycMod PI MI IC50/EC50 ([2]; assay number 17, MI)	Hela CellCycMod PI Cell Number IC50/EC50 ([2]; assay number 18, cell number)	hp70S6K1 LANCE IC50/EC50 ([7]; assay number 31)	hKDR LANCE IC50/EC50 ([8]; assay number 32)	hJAK2 LANCE IC50/EC50 ([12]; assay number 33)	hGSK3b LANCE IC50/EC50 ([9]; assay number 34)	hFLT3 LANCE IC50/EC50 ([10]; assay number 35)	VEGF_ADSC\ECFC Angio Hoechst NucArea IC50/EC50 [11]	IC50 [2, 21]	IC50 [2, 22]	IC50 [2, 23]	IC50 [2, 24]	IC50 [2, 25]	IC50 [7, 30]	IC50 [12, 31]	also measured
O=C(Nc1ccc([N+](=O)[O-])cc1Cl)c1cc(Cl)ccc1O [NCGC00015735-11]	0.112 µM	5.81 µM																			IC50 ([2]; read-out: Hela CellCycMod PI 2N summarized IC50): > 10 µM; IC50 ([2]; read-out: Hela CellCycMod PI 4N summarized IC50): > 10 µM; IC50 ([2]; read-out: Hela CellCycMod PI Cell Number summarized IC50): 0.144 µM; IC50 ([2]; read-out: Hela CellCycMod PI MI summarized IC50): > 10 µM; IC50 ([2]; read-out: Hela CellCycMod PI S Phase summarized IC50): > 10 µM; IC50 ([3]; read-out: Basal_Viability ATP DLD-1 summarized IC50): 0.00349 µM; IC50 ([4]; read-out: Basal_Viability ATP HCT116 summarized IC50): 0.00144 µM; IC50 ([5]; read-out: GSK3b inh pretreated_Viability ATP HCT116 summarized IC50): 0.00295 µM; IC50 ([6]; read-out: Basal_Viability ATP Colo 320 summarized IC50): 0.00826 µM; IC50 ([7]; read-out: hp70S6K1 LANCE summarized IC50): > 20 µM; IC50 ([8]; read-out: hKDR LANCE summarized IC50): > 20 µM; IC50 ([9]; read-out: hGSK3b LANCE summarized IC50): > 20 µM; IC50 ([10]; read-out: hFLT3 LANCE summarized IC50): > 20 µM
COc1cc(-c2ccc(=O)[nH]n2)ccc1OC(F)F [NCGC00016106-13]			1.2205 µM	> 10 µM	> 10 µM	> 10 µM	0.0092 µM	> 20 µM	> 20 µM	> 20 µM	> 20 µM	> 20 µM	> 10 µM								Hela CellCycMod PI S Phase IC50/EC50 ([2]; assay number 15, S phase): > 10 µM
Oc1c(Cl)cc(Cl)cc1Sc1cc(Cl)cc(Cl)c1O [NCGC00018163-10]	1.79 µM	> 10 µM												> 10 µM	> 10 µM	> 10 µM	> 10 µM	> 10 µM	> 20 µM	> 20 µM	IC50 [3, 26]: 0.001 µM; IC50 [13]: 0.001 µM; IC50 [4, 27]: 0.001 µM; IC50 [5, 28]: 0.001 µM; IC50 [6, 29]: 0.015 µM; IC50 [14]: 0.996 µM; IC50 [15]: 0.001 µM; IC50 [16]: 0.00867 µM; IC50 [9, 32]: 6.57 µM; IC50 [10, 33]: > 20 µM
COc1cc([C@@H]2c3cc4c(cc3[C@H](O)[C@H]3COC(=O)[C@H]23)OCO4)cc(OC)c1OC [NCGC00022001-13]	0.0081 µM	> 10 µM												0.0089 µM	> 10 µM	0.0077 µM	0.0112 µM	0.0048 µM	> 20 µM	> 20 µM	IC50 ([8]; assay number 32, read-out: hKDR LANCE summarized IC50): > 20 µM; IC50 [9, 32]: > 20 µM; IC50 [10, 33]: > 20 µM
CCCCCCCCCCCCCCCC[n+]1ccccc1 [NCGC00091023-06]		3.01 µM												1.25 µM	> 10 µM	> 10 µM	0.515 µM	0.405 µM	> 20 µM	> 20 µM	IC50 [3, 26]: 1.93 µM; IC50 [13]: 1.61 µM; IC50 [4, 27]: 1.19 µM; IC50 [5, 28]: 2.29 µM; IC50 [6, 29]: 1.64 µM; IC50 [14]: 2.29 µM; IC50 [15]: 1.27 µM; IC50 [16]: 0.934 µM; IC50 [9, 32]: > 20 µM; IC50 [10, 33]: > 20 µM
C[C@@H]1C[C@@H]([C@H](O)CC2CC(=O)NC(=O)C2)C(=O)[C@@H](C)C1 [NCGC00169964-05]			1.1486 µM	> 10 µM	> 10 µM	> 10 µM	0.5421 µM	> 20 µM	> 20 µM	> 20 µM	> 20 µM	> 20 µM	> 10 µM								
CCC(C)n1ncn(-c2ccc(N3CCN(c4ccc(OC[C@H]5CO[C@](Cn6cncn6)(c6ccc(Cl)cc6Cl)O5)cc4)CC3)cc2)c1=O (stereo partly shown) [NCGC00274068-01]			1.5488 µM	> 10 µM	> 10 µM	> 10 µM	> 10 µM	> 20 µM	> 20 µM	> 20 µM	> 20 µM	> 20 µM	> 10 µM								
O=C(Nc1ccc([N+](=O)[O-])cc1Cl)c1cc(Cl)ccc1O [Niclosamide]																					IC50 ([1]; Homo sapiens, read-out: Anti-Angiogenesis): 0.112 µM; EC50 [17]: 1.57 µM; EC50 [18]: > 10 µM; EC50 [19]: > 10 µM; EC50 ([2]; Homo sapiens, HeLa, read-out: CellCycle G2/M): > 10 µM; IC50 ([3]; Homo sapiens, DLD-1, read-out: Basal_Viability ATP DLD-1): 0.00349 µM; IC50 ([4]; Homo sapiens, HCT-116, read-out: Basal_Viability ATP HCT116): 0.00144 µM; IC50 ([5]; Homo sapiens, HCT-116, read-out: GSK3b inh pretreated_Viability ATP HCT116): 0.00295 µM; IC50 ([6]; Homo sapiens, COLO 320, read-out: Basal_Viability ATP Colo 320): 0.00826 µM; IC50 [7, 34]: > 20 µM; IC50 [8]: > 20 µM; IC50 ([9]; kinase assay, read-out: GSK3b): > 20 µM; IC50 ([10]; kinase assay, read-out: FLT3): > 20 µM
COc1cc2c(c(OC)c1OC)-c1ccc(OC)c(=O)cc1[C@@H](NC(C)=O)CC2 [colchicine]																					IC50 [7]: > 20 µM; IC50 [8]: > 20 µM; IC50 [12]: > 20 µM; IC50 [9]: > 20 µM; IC50 [10]: > 20 µM
O=C(CCCCCCC(=O)Nc1ccccc1)NO [vorinostat]																					IC50 [7, 34]: > 20 µM; IC50 [8]: > 20 µM; IC50 ([12]; kinase assay, read-out: JAK2): > 20 µM; IC50 ([9]; kinase assay, read-out: GSK3b): > 20 µM; IC50 ([10]; kinase assay, read-out: FLT3): > 20 µM
